This passage reports melting point results from patent US6579890B1, “Matrix metalloprotease inhibitors” (Syntex (U.S.A.) Inc., priority 1993, dated 2003).

SMILES strings stand for the structures.

What is called melting point is the temperature of the solid-liquid transition. As for `CC(C)(C)[C@H](NC(=O)[C@H](CCCc1ccc(-c2ccccc2)cc1)CC(=O)O)C(=O)Nc1ccncc1` [Example 32A, N-(2R-carboxymethyl-5-(biphen-4-yl)pentanoyl)-L-t-leucine-N′-(pyridin-4-yl)carboxamide], the melting point was in the range of 198 to 201 °C.
